Laboratory results from PubChem BioAssay AID1259407 (Chemical Carcinogenesis Research Information System (CCRIS), 2018).
The source made the active and inactive calls. The rule behind the calls is not given here.

System: CCRIS mutagenicity, Ames/micronucleus/aberration tests
Test: CCRIS mutagenicity studies

## COC1=CC(=O)C[C@@H](C)[C@]12Oc1c(Cl)c(OC)cc(OC)c1C2=O
End Point: IN VITRO CHROMOSOMAL ABERRATIONS, Test System: PERIPHERAL HUMAN BLOOD LYMPHOCYTES, Metabolic Activation: NONE
  mutagenic call: active; positive (ploidy changes)
End Point: IN VITRO MICRONUCLEUS, Test System: CHO CELLS, Metabolic Activation: RAT, LIVER, S-9, AROCLOR 1254
  mutagenic call: active; positive
End Point: IN VITRO MICRONUCLEUS, Test System: V79 CELLS, Metabolic Activation: NONE
  mutagenic call: active; positive
Test System: AMES SALMONELLA TYPHIMURIUM, Strain/Indicator: TA97, Metabolic Activation: HAMSTER, LIVER, S-9, AROCLOR 1254 (10 OR 30%), Method: PREINCUBATION
  mutagenic call: inactive; negative
Test System: AMES SALMONELLA TYPHIMURIUM, Strain/Indicator: TA97, Metabolic Activation: NONE, Method: PREINCUBATION
  mutagenic call: inactive; negative
Test System: AMES SALMONELLA TYPHIMURIUM, Strain/Indicator: TA97, Metabolic Activation: RAT, LIVER, S-9, AROCLOR 1254 (10 OR 30%), Method: PREINCUBATION
  mutagenic call: inactive; negative
Test System: AMES SALMONELLA TYPHIMURIUM, Strain/Indicator: TA98, Metabolic Activation: HAMSTER, LIVER, S-9, AROCLOR 1254 (10 OR 30%), Method: PREINCUBATION
  mutagenic call: inactive; negative
Test System: AMES SALMONELLA TYPHIMURIUM, Strain/Indicator: TA98, Metabolic Activation: NONE, Method: PREINCUBATION
  mutagenic call: inactive; negative
Test System: AMES SALMONELLA TYPHIMURIUM, Strain/Indicator: TA98, Metabolic Activation: RAT, LIVER, S-9, AROCLOR 1254 (10 OR 30%), Method: PREINCUBATION
  mutagenic call: inactive; negative
Test System: AMES SALMONELLA TYPHIMURIUM, Strain/Indicator: TA100, Metabolic Activation: HAMSTER, LIVER, S-9, AROCLOR 1254 (10 OR 30%), Method: PREINCUBATION
  mutagenic call: inactive; negative
Test System: AMES SALMONELLA TYPHIMURIUM, Strain/Indicator: TA100, Metabolic Activation: NONE, Method: PREINCUBATION
  mutagenic call: inactive; negative
Test System: AMES SALMONELLA TYPHIMURIUM, Strain/Indicator: TA100, Metabolic Activation: RAT, LIVER, S-9, AROCLOR 1254 (10 OR 30%), Method: PREINCUBATION
  mutagenic call: inactive; negative
Test System: AMES SALMONELLA TYPHIMURIUM, Strain/Indicator: TA100, Metabolic Activation: RAT, LIVER, S-9, PHENOBARBITAL, Method: PREINCUBATION
  mutagenic call: inactive; negative
Test System: AMES SALMONELLA TYPHIMURIUM, Strain/Indicator: TA1535, Metabolic Activation: HAMSTER, LIVER, S-9, AROCLOR 1254 (10 OR 30%), Method: PREINCUBATION
  mutagenic call: inactive; negative
Test System: AMES SALMONELLA TYPHIMURIUM, Strain/Indicator: TA1535, Metabolic Activation: NONE, Method: PREINCUBATION
  mutagenic call: inactive; negative
Test System: AMES SALMONELLA TYPHIMURIUM, Strain/Indicator: TA1535, Metabolic Activation: RAT, LIVER, S-9, AROCLOR 1254 (10 OR 30%), Method: PREINCUBATION
  mutagenic call: inactive; negative
Test System: AMES SALMONELLA TYPHIMURIUM, Strain/Indicator: TA1537, Metabolic Activation: HAMSTER, LIVER, S-9, AROCLOR 1254 (30%), Method: PREINCUBATION
  mutagenic call: inactive; negative
Test System: AMES SALMONELLA TYPHIMURIUM, Strain/Indicator: TA1537, Metabolic Activation: NONE, Method: PREINCUBATION
  mutagenic call: inactive; negative
Test System: AMES SALMONELLA TYPHIMURIUM, Strain/Indicator: TA1537, Metabolic Activation: RAT, LIVER, S-9, AROCLOR 1254 (30%), Method: PREINCUBATION
  mutagenic call: inactive; negative
Test System: MOUSE LYMPHOMA, Strain/Indicator: L5178Y (TK+/TK-), Metabolic Activation: NONE, Method: MICROWELL
  mutagenic call: active; positive
Test System: MOUSE LYMPHOMA, Strain/Indicator: L5178Y (TK+/TK-), Metabolic Activation: S-9, Method: MICROWELL
  mutagenic call: active; positive

## CC(=O)Nc1nc2c3cccnc3ccc2n1C
Test System: AMES SALMONELLA TYPHIMURIUM, Strain/Indicator: TA98(1,8-DNP6), Metabolic Activation: RAT, LIVER, S-9, Method: STANDARD PLATE
  mutagenic call: inactive; negative
Test System: AMES SALMONELLA TYPHIMURIUM, Strain/Indicator: TA98(NR), Metabolic Activation: RAT, LIVER, S-9, Method: STANDARD PLATE
  mutagenic call: active; positive
Test System: AMES SALMONELLA TYPHIMURIUM, Strain/Indicator: TA98, Metabolic Activation: RAT, LIVER, S-9, Method: STANDARD PLATE
  mutagenic call: active; positive
Test System: AMES SALMONELLA TYPHIMURIUM, Strain/Indicator: TA98, Method: STANDARD PLATE
  mutagenic call: active; positive
